Measured values as given in US20020183384A1, “Methods of treating nuclear factor-kappa B mediated diseases and disorders” (priority 2001, published 2002).

system: NF-κB mediated transcription; assay: NF-κB driven β-lactamase reporter assay in ECV-304 NF-κB.βlaZ cells (AURORA CCF2 fluorescence); type: cell-based, human; conditions: 10 μM compound; ECV-304 NF-κB.βlaZ cells stimulated with 10 ng/mL TNF-α or 100 pg/mL IL-1β, 6 hours at 37° C.; inhibition of maximum blue/green ratio
In short: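 Blue/green (460/530 nm, excitation 395 nm) CCF2 emission ratio quantified NF-κB-driven β-lactamase expression in the stably transfected endothelial-like ECV-304 clone 1E8.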

| Compound | Percent Inhibition at 10 μM |
| --- | --- |
| CC(C)c1cc(C(C)C)c(OC(=O)NS(=O)(=O)Oc2c(C(C)C)cc(C(C)C)cc2C(C)C)c(C(C)C)c1 [Example 126, Carbamic acid, [[2,4,6-tris(1-methylethyl)phenoxy]sulfonyl]-,2,4,6-tris(1-methylethyl)phenyl ester] | 10.02% |
| CC(C)c1cc(C(C)C)c(OS(=O)(=O)NC(=O)Oc2c(C(C)(C)C)cc(C(C)(C)C)cc2C(C)(C)C)c(C(C)C)c1 [Example 127, Carbamic acid, [[2,4,6-bis(1-methylethyl)phenoxy]sulfonyl]-, 2,4,6-tris(1,1-dimethylethyl)phenyl ester] | 74.01% |
| CC(C)c1cccc(C(C)C)c1OS(=O)(=O)NC(=O)OC1C2CC3CC(C2)CC1C3 (centres unmarked) [Example 131, Carbamic acid, [[2,6-bis(1-methylethyl)phenoxy]sulfonyl]-, tricyclo[3.1.1.1^3,7]-dec-2-yl ester] | 33.39% |
| CC(C)c1cc(-c2cc(C(C)C)c(OC(=O)NS(=O)(=O)Oc3c(C(C)C)cccc3C(C)C)c(C(C)C)c2)cc(C(C)C)c1OC(=O)NS(=O)(=O)Oc1c(C(C)C)cccc1C(C)C [Example 134, Carbamic acid, [[2,6-bis(1-methylethyl)phenoxy]sulfonyl]-, 3,3′,5,5′-tetrakis(1-methylethyl) [1,1′-biphenyl]-4,4′-diyl ester] | 18.39% |

same assay, conditions: Homo sapiens, ECV-304, 6 h, 10 μM compound; ECV-304 NF-κB.βlaZ cells stimulated with 10 ng/mL TNF-α or 100 pg/mL IL-1β, 6 hours at 37° C.; inhibition of maximum blue/green ratio; read-out: Percent Inhibition at 10 μM

| Compound | inhibition at 10 µM |
| --- | --- |
| CC[C@H](C=C[C@@H](C)[C@H]1CC[C@H]2[C@@H]3CC=C4C[C@H](OC(=O)NS(=O)(=O)Oc5c(C(C)C)cccc5C(C)C)CC[C@]4(C)[C@H]3CC[C@]12C)C(C)C [Example 118, Stigmasta-5,22-dien-3-ol, [[2,6-bis(1-methylethyl)phenoxy]sulfonyl]-carbamate, (3α)-] | < 10% |
| CC(C)c1cc(C(C)C)c(CC(=O)NS(=O)(=O)Oc2c(C(C)C)cccc2C(C)C)c(C(C)C)c1 [Example 120, Sulfamic acid, [[2,4,6-tris(1-methylethyl)phenyl]acetyl]-, 2,6-bis(1-methylethyl)phenyl ester] | 55% |
| CC[C@H](CC[C@@H](C)[C@H]1CC[C@H]2[C@@H]3CCC4C[C@H](OC(=O)NS(=O)(=O)Oc5c(C(C)C)cccc5C(C)C)CC[C@]4(C)[C@H]3CC[C@]12C)C(C)C (stereo partly drawn) [Example 121, Stigmastan-3-ol, [[2,6-bis(1-methylethyl)phenoxy]sulfonyl]-carbamate, (3α)-] | < 10% |
| CC(C)c1cccc(C(C)C)c1CC(=O)NS(=O)(=O)Oc1c(C(C)C)cccc1C(C)C [Example 122, Sulfamic acid, [[2,6-bis(1-methylethyl)phenyl]acetyl]-, 2,6-bis(1-methylethyl)-phenyl ester] | 65.3% |
| CC(C)c1cccc(C(C)C)c1OS(=O)(=O)NC(=O)OC1CCCCC1 [Example 133, Carbamic acid, [[2,6-bis(1-methylethyl)phenoxy]sulfonyl]-, cyclohexyl ester] | < 10% |
| CC(C)c1cccc(C(C)C)c1OS(=O)(=O)NC(=O)OC12CC3CC(CC(C3)C1)C2 [Example 136, Carbamic acid, [[2,6-bis(1-methylethyl)phenoxy]sulfonyl]-, tricyclo[3.3.1.1^3,7]-dec-1-yl ester] | < 10% |

same assay, conditions: Homo sapiens; 10 μM compound; ECV-304 NF-κB.βlaZ cells stimulated with 10 ng/mL TNF-α or 100 pg/mL IL-1β, 6 hours at 37° C.; inhibition of maximum blue/green ratio; read-out: Percent Inhibition at 10 μM

| Compound | inhibition at 10 µM |
| --- | --- |
| CC(C)c1cccc(C(C)C)c1OS(=O)(=O)NC(=O)Oc1c(-c2ccccc2)cccc1-c1ccccc1 [Example 114, Carbamic acid, [[2,6-bis(1-methylethyl)phenoxy]sulfonyl]-, [1,1′:3′,1″-terphenyl]-2′-yl ester] | < 10% |
| COc1cc(C(C)(C)C)c(OC(=O)NS(=O)(=O)Oc2c(C(C)C)cccc2C(C)C)c(C(C)(C)C)c1 [Example 115, Carbamic acid, [[2,6-bis(1-methylethyl)phenoxy]sulfonyl]-, 2,6-bis(1,1-dimethylethyl)-4-methoxyphenyl ester] | 39% |
| CC(C)c1cccc(C(C)C)c1OS(=O)(=O)NC(=O)Oc1c(C(C)C)c(C(C)C)c(F)c(C(C)C)c1C(C)C [Example 116, Carbamic acid, [[2,6-bis(1-methylethyl)phenoxy]sulfonyl]-, 4-fluoro-2,3,5,6-tetrakis(1-methylethyl)phenyl ester] | < 10% |
| CC(C)c1cc(Cl)cc(C(C)C)c1OC(=O)NS(=O)(=O)Oc1c(C(C)C)cccc1C(C)C [Example 117, Carbamic acid, [[2,6-bis(1-methylethyl)phenoxy]sulfonyl]-, 4-chloro-2,6-bis(1-methylethyl)phenyl ester] | < 10% |
| Cc1cc(C(C)(C)C)c(OC(=O)NS(=O)(=O)Oc2c(C(C)C)cccc2C(C)C)c(C(C)(C)C)c1 [Example 119, Carbamic acid, [[2,6-bis(1-methylethyl)phenoxy]sulfonyl]-, 2,6-bis(1,1-dimethylethyl)-4-methylphenyl ester] | 56.6% |
| COc1cc(C(C)C)c(OC(=O)NS(=O)(=O)Oc2c(C(C)C)cccc2C(C)C)c(C(C)C)c1 [Example 123, Carbamic acid, [[2,6-bis(1-methylethyl)phenoxy]sulfonyl]-, 4-methoxy-2,6-bis(1-methylethyl)phenyl ester] | < 10% |
| CC(C)c1cc(C(C)C)c(OC(=O)NS(=O)(=O)Oc2c(C(C)C)cccc2C(C)C)c(C(C)C)c1 [Example 124, Carbamic acid, [[2,6-bis(1-methylethyl)phenoxy]sulfonyl]-, 2,4,6-tris(1-methylethyl)phenyl ester] | 11.3% |
| CC(C)c1cc(C(C)C)c(OS(=O)(=O)NC(=O)Oc2c(C(C)C)cccc2C(C)C)c(C(C)C)c1 [Example 125, Carbamic acid, [[2,4,6-tris(1-methylethyl)phenoxy]sulfonyl]-, 2,6-bis(1-methylethyl)phenyl ester] | 11% |
| CC(C)c1cccc(C(C)C)c1OS(=O)(=O)NC(=O)Oc1c(C(C)(C)C)cc(SSc2cc(C(C)(C)C)c(O)c(C(C)(C)C)c2)cc1C(C)(C)C [Example 128, Carbamic acid, [[2,6-bis(1-methylethyl)phenoxy]sulfonyl]-, 4-[[3,5-bis(1,1-dimethylethyl)-4-hydroxyphenyl]dithio]-2,6-bis(1,1-dimethylethyl)phenyl ester] | < 10% |
| CC(C)c1ccc(OC(=O)NS(=O)(=O)Oc2c(C(C)C)cccc2C(C)C)c(C(C)C)c1 [Example 129, Carbamic acid, [[2,6-bis(1-methylethyl)phenoxy]sulfonyl]-, 2,4-bis(1-methylethyl)phenyl ester] | < 10% |
| CC(C)c1cc(CN(C)C)cc(C(C)C)c1OC(=O)NS(=O)(=O)Oc1c(C(C)C)cccc1C(C)C [Example 130, Carbamic acid, [[2,6-bis(1-methylethyl)phenoxy]sulfonyl]-, 4-[(dimethylamino)-methyl]-2,6-bis(1-methylethyl)phenyl ester] | < 10% |
| CC(C)c1cc(O)cc(C(C)C)c1OC(=O)NS(=O)(=O)Oc1c(C(C)C)cccc1C(C)C [Example 132, Carbamic acid, [[2,6-bis(1-methylethyl)phenoxy]sulfonyl]-, 4-hydroxy-2,6-bis(1-methylethyl)phenyl ester] | < 10% |
| CC(C)c1cccc(C(C)C)c1OC(=O)NS(=O)(=O)Oc1c(C(C)C)cc(O)cc1C(C)C [Example 135, Carbamic acid, [[4-hydroxy-2,6-bis(1-methylethyl)phenoxy]sulfonyl]-, 2,6-bis(1-methylethyl)phenyl ester] | < 10% |
